Experiments:
AMPK (A2/B1/G3) = AMPK (A2/B1/G3) (Homo sapiens, UniProt P54646+Q9UGI9+Q9Y478); experiment: AMPK kinase binding activity in activation mode (AC50); format: biochemical
AMPK (A2/B2/G3) = AMPK (A2/B2/G3) (Homo sapiens, UniProt O43741+P54646+Q9UGI9); experiment: as above; format: biochemical
From the text: In Vitro AMPK Kinase Inhibition Experiments

AMPK (A2/B1/G1) = AMPK (A2/B1/G1) (Homo sapiens, UniProt P54619+P54646+Q9Y478); experiment: as above; format: biochemical
[1] = tested on: human cardiomyocyte cells (HCM); experiment: Glucose uptake assay, human cardiomyocyte cells; format: cell-based; conditions: for AMPK activation activity (glucose uptake assay): 10 doses 100 μM to 0.005 μM
Protocol: FIGS. 17-19 show results for glucose update assays in human cardiomyocyte cells (“HCM”-healthy donor) (Promocell, cat. no. C-12810) when treated with compound I-11 (FIG. 17), compound I-7 (FIG. 18), and PF-06409577 (FIG. 19). After recovered HCM cells for 4 days, cells were starved for 3 hours in high glucose DMEM without FBS, treated with the components noted above in DMEM without FBS/glucose for 1 hour, and glucose uptake was detected using a glucose uptake kit (Promega). […] The bars show (from left to right) concentrations of 100 μM, 33 μM, 11 μM, 3.7 μM, 1.23 μM, 0.41 μM, 0.14 μM, 0.045 μM, 0.015 μM, 0.005 μM, 0 μM, and insulin.
FIGS. 20-22 show results for glucose update assays in human cardiomyocyte cells (“HCM”-diabetic donor) (Promocell, cat. no. C-12810) when treated with compound I-11 (FIG. 20), compound I-7 (FIG. 21), and PF-06409577 (FIG. 22). After recovered HCM cells for 4 days, cells were starved for 3 hours in high glucose DMEM without FBS, treated with the components noted above in DMEM without FBS/glucose for 1 hour, and glucose uptake was detected using a glucose uptake kit (Promega). […] The bars show (from left to right) concentrations of 100 μM, 33 μM, 11 μM, 3.7 μM, 1.23 μM, 0.41 μM, 0.14 μM, 0.045 μM, 0.015 μM, 0.005 μM, 0 μM, and insulin.
(§1) Human skeletal myoblasts were obtained (Thermofisher; BYU) and cultured in DMEM/F12 medium with 10% FBS. For differentiation, 2% horse serum low glucose DMEM medium was employed for 72 hours. Human cardiomyocytes cells (HCM cells; Promocell) were cultured in myocyte growth medium (Promocell). Human preadipocyte HWP-c cells (Promocell) were obtained from upper arm of diabetic II donor. Human preadipocyte HWP-c cells (Promocell) were obtained from abdomen of diabetic II donor. For differentiating human preadipocytes, cells were cultured in preadipocyte growth medium to total confluency stage. The growth medium was replaced with preadipocyte differentiation medium for 72 hours, then changed to PromoCell adipocyte nutrition medium to complete the differentiation process. THLE-2 cells were cultured in BEGM from Lonza/Clonetics Corporation, Walkersville, MD 21793 (BEGM Bullet Kit; CC3170). HepG2, L6 and C2Cl2 cells were cultured in EMEM medium.
(§2) After differentiation myoblasts, preadipocyte cells were starved by removing the medium and adding 100 μL DMEM without serum. The medium was then replaced with 100 μL DMEM±1 μM insulin at indicated concentration of representative compounds without serum or glucose. The cells were then incubated for 1 hour at 37° C. in 5% CO2. The cells were then removed from the medium and 50 μL of 0.1 mM 2DG in PBS was added. Cells were incubated for 30 minutes at 25° C. 25 μL of Stop Buffer was added and samples were mixed. 25 μL of Neutralization Buffer was then added and mixed. 100 μL of 2DG6P Detection Reagent was then added and mixed. Samples were then incubated for 1 hour at 25° C. Luminescence was then recorded with 0.3-1 second integration on a luminometer.

[2] = tested on: human skeletal muscle cells (HSKM cells); experiment: Glucose uptake assay, human skeletal muscle cells; format: cell-based; conditions: 100 μM to 0.005 μM, 1 hour
Protocol: FIGS. 1-4 show results for cells treated with differing doses of representative compounds of Structure (I) (i.e., compound I-11 in FIG. 1 and compound I-7 in FIG. 2) as well reference compounds (i.e., PF-06409577 in FIG. 3 and MK-8722 in FIG. 4). […] Cells were starved for 3 hours in high glucose DMEM without FBS, then treated with indicated compounds in DMEM without FBS/glucose for 1 hour, and glucose uptake was detected using an uptake glucose kit (Promega). The bars show (from left to right) concentrations of 100 μM, 33 μM, 11 μM, 3.7 μM, 1.23 μM, 0.41 μM, 0.14 μM, 0.045 μM, 0.015 μM, 0.005 μM, 0 μM, and insulin.
as §1, §2

AMPK (A2/B1/G1), sequence (P54646 whole entry): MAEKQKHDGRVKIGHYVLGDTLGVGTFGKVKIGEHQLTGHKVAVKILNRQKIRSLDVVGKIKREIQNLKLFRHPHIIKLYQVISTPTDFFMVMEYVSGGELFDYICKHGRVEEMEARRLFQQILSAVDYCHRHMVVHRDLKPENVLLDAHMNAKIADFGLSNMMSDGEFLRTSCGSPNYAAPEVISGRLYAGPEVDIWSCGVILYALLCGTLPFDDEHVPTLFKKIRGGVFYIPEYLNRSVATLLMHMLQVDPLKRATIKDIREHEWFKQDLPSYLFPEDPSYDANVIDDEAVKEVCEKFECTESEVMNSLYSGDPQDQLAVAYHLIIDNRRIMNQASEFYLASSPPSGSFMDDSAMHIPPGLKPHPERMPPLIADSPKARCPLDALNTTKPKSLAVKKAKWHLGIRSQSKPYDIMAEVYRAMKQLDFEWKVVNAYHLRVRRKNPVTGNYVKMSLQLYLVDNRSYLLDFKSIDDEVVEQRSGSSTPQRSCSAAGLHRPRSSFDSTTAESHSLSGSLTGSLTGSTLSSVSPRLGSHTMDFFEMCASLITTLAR
AMPK (A2/B1/G1), sequence (Q9Y478 whole entry): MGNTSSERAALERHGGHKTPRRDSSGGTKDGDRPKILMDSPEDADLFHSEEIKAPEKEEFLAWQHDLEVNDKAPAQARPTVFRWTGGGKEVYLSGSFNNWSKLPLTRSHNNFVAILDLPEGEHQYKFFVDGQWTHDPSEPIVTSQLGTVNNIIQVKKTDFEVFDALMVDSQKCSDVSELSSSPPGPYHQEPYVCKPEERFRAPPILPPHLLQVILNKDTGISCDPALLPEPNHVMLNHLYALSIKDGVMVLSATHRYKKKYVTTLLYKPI
AMPK (A2/B1/G1), sequence (P54619 whole entry): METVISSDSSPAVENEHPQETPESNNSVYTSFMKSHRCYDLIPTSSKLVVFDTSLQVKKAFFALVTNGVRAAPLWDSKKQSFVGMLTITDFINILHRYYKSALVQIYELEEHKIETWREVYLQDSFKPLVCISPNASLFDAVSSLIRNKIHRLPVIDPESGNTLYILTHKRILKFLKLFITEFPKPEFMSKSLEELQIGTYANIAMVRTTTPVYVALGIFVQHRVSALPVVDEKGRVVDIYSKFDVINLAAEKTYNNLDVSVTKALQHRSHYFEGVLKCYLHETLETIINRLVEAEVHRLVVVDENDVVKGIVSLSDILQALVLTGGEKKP
AMPK (A2/B2/G3), sequence (P54646 whole entry): as the sequence (P54646 whole entry) above
AMPK (A2/B2/G3), sequence (O43741 whole entry): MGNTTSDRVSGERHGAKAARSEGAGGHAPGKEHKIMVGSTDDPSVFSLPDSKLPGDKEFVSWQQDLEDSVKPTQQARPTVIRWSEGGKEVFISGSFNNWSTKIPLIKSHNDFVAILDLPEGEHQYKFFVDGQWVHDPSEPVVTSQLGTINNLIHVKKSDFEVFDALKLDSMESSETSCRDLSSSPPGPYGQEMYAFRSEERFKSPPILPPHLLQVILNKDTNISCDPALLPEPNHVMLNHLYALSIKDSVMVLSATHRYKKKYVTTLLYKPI
AMPK (A2/B2/G3), sequence (Q9UGI9 whole entry): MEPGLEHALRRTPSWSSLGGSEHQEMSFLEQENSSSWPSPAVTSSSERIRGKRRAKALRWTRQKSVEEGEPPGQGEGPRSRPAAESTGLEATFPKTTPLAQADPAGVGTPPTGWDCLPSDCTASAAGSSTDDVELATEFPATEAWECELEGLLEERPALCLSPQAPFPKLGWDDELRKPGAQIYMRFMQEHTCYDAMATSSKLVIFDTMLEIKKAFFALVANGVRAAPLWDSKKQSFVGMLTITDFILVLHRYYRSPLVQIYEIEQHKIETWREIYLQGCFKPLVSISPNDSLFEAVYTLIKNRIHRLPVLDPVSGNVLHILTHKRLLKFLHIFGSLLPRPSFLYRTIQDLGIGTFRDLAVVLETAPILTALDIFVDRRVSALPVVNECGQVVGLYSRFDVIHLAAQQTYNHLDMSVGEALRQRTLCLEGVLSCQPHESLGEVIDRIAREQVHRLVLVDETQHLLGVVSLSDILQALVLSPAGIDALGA
AMPK (A2/B1/G3), sequence (P54646 whole entry): as the sequence (P54646 whole entry) above
AMPK (A2/B1/G3), sequence (Q9Y478 whole entry): as the sequence (Q9Y478 whole entry) above
AMPK (A2/B1/G3), sequence (Q9UGI9 whole entry): as the sequence (Q9UGI9 whole entry) above

Molecule | AC50 (AMPK (A2/B1/G3)) | AC50 (AMPK (A2/B2/G3)) | further results
Cc1cc2c(cc1Oc1nc3nc(-c4ccc(C5(O)CCC5)cc4)c(Cl)cc3[nH]1)B(O)OC2 [II-26, 6-((6-chloro-5-(4-(1-hydroxycyclobutyl)phenyl)-1H-imidazo[4,5-b]pyridin-2-yl)oxy)-5-methylbenzo[c][1,2]oxaborol-1(3H)-ol] | ≤ 10 nM | 10 to 500 nM | –
O=c1[nH]c(-c2c[nH]c3cc(F)c(-c4ccc(C5(O)COC5)nc4)cc23)no1 [Compound I-18, 3-(6-fluoro-5-(6-(3-hydroxyoxetan-3-yl)pyridin-3-yl)-1H-indol-3-yl)-1,2,4-oxadiazol-5(4H)-one] | – | – | AC50 (AMPK (A2/B1/G1)): 7500 to 20000 nM
O=P(O)(O)CSc1c[nH]c2ccc(-c3ccc(C4(O)CCC4)cc3)cc12 [Compound I-48, (((5-(4-(1-hydroxycyclobutyl)phenyl)-1H-indol-3-yl)thio)methyl)phosphonic acid] | 10 to 500 nM | 500 to 5000 nM | –
1-(6-chloro-5-(4-(1- hydroxycyclobutyl) phenyl)- 1H-indol-3-yl)-4-methyl-4,5- dihydro-3H-1l6,2,5- thiadiazol-3-one 1-oxide (racemic) [Compound I-2, 1-(6-chloro-5-(4-(1-hydroxycyclobutyl)phenyl)-1H-indol-3-yl)-4-methyl-4,5-dihydro-3H-1l6,2,5-thiadiazol-3-one 1-oxide (racemic)] | 10 to 500 nM | – | –
O=P(O)(O)CSc1c[nH]c2cc(F)c(-c3ccc(N4CC[C@H](O)C4)cc3)cc12 [Compound I-24, (S)-(((6-fluoro-5-(4-(3-hydroxypyrrolidin-1-yl)phenyl)-1H-indol-3-yl)thio)methyl)phosphonic acid] | 10 to 500 nM | 500 to 5000 nM | –
O=C(O)c1c[nH]c2cc(Cl)c(-c3ccc(C4CCCO4)cc3)cc12 (stereo not drawn) [PF-06409577, reference compound] | – | – | AMPK activation activity (glucose uptake assay) ([1]; diabetic donor): significant variability; glucose uptake ([1]; donor not stated): did not induce glucose uptake in dose-dependent manner; AMPK activation activity (glucose uptake assay) ([1]; healthy donor): significant variability; dose dependence of glucose uptake (printed: activation of insulin / AMPK activation) [2]: highly variable
Cc1ccc(N2CC(=O)NS2(=O)=O)cc1Oc1nc2nc(-c3ccc(C4(O)CCC4)cc3)c(Cl)cc2[nH]1 [II-21, 5-(3-((6-chloro-5-(4-(1-hydroxycyclobutyl)phenyl)-1H-imidazo[4,5-b]pyridin-2-yl)oxy)-4-methylphenyl)-1,2,5-thiadiazolidin-3-one 1,1-dioxide] | ≤ 10 nM | 5000 to 7500 nM | –
O=P(O)(O)CSc1c[nH]c2cc(F)c(-c3ccc(C4(O)CCC4)cc3)c(F)c12 [Compound I-46, (((4,6-difluoro-5-(4-(1-hydroxycyclobutyl)phenyl)-1H-indol-3-yl)thio)methyl)phosphonic acid] | 10 to 500 nM | 500 to 5000 nM | –
O=C1CN(c2c[nH]c3cc(Cl)c(-c4ccc(C5(O)CCC5)cc4)cc23)S(=O)(=O)N1 [Compound I-76, 5-(6-chloro-5-(4-(1-hydroxycyclobutyl)phenyl)-1H-indol-3-yl)-1,2,5-thiadiazolidin-3-one 1,1-dioxide] | ≤ 10 nM | 500 to 5000 nM | –
O=c1[nH]c(-c2c[nH]c3ccc(N4CC[C@H](O)C4)cc23)no1 [Compound I-20, (S)-3-(5-(3-hydroxypyrrolidin-1-yl)-1H-indol-3-yl)-1,2,4-oxadiazol-5(4H)-one] | 500 to 5000 nM | – | AC50 (AMPK (A2/B1/G1)): 5000 to 7500 nM
Cc1ccc(N2CC(=O)NS2(=O)=O)cc1Oc1nc2cc(-c3ccc(C4(O)CCC4)cc3)c(F)cc2[nH]1 [II-22, 5-(3-((6-fluoro-5-(4-(1-hydroxycyclobutyl)phenyl)-1H-benzo[d]imidazol-2-yl)oxy)-4-methylphenyl)-1,2,5-thiadiazolidin-3-one 1,1-dioxide] | 10 to 500 nM | 10 to 500 nM | –
C[C@@H]1NS(=O)(c2c[nH]c3cc(Cl)c(-c4ccc(C5(O)CCC5)cc4)cc23)=NC1=O (stereo partly drawn) [Compound I-3, (4S)-1-(6-chloro-5-(4-(1-hydroxycyclobutyl)phenyl)-1H-indol-3-yl)-4-methyl-4,5-dihydro-3H-1l6,2,5-thiadiazol-3-one 1-oxide] | 10 to 500 nM | – | –
O=P(O)(O)CSc1c[nH]c2cc(F)c(N3CC[C@H](O)C3)c(F)c12 [Compound I-26, (S)-(((4,6-difluoro-5-(3-hydroxypyrrolidin-1-yl)-1H-indol-3-yl)thio)methyl) phosphonic acid] | 10 to 500 nM | 500 to 5000 nM | –
O=c1[nH]c(-c2c[nH]c3ncc(-c4ccc(C5(O)CCC5)cc4)cc23)no1 [Compound I-9, 3-(5-(4-(1-hydroxycyclobutyl)phenyl)-1H-pyrrolo[2,3-b]pyridin-3-yl)-1,2,4-oxadiazol-5(4H)-one] | 10 to 500 nM | – | –
Cc1ccc(N2CC(=O)NS2(=O)=O)cc1Oc1nc2cc(-c3ccc(C4(O)CCC4)cc3)c(Cl)cc2[nH]1 [II-23, 5-(3-((6-chloro-5-(4-(1-hydroxycyclobutyl)phenyl)-1H-benzo[d]imidazol-2-yl)oxy)-4-methylphenyl)-1,2,5-thiadiazolidin-3-one 1,1-dioxide] | 10 to 500 nM | 10 to 500 nM | –
O=P(O)(O)CSc1c[nH]c2cc(F)c(-c3ccc(N4CC[C@H](O)C4)cc3)c(F)c12 [Compound I-25, (S)-(((4,6-difluoro-5-(4-(3-hydroxypyrrolidin-1-yl)phenyl)-1H-indol-3-yl)thio)methyl)phosphonic acid] | 10 to 500 nM | 500 to 5000 nM | –

Continued, in another order:

AC50 (AMPK (A2/B1/G3)) | AC50 (AMPK (A2/B2/G3)) | Molecule | further results
500 to 5000 nM | – | O=c1[nH]c(-c2c[nH]c3cc(F)c(-c4ccc(C5(O)CCC5)cc4)nc23)no1 [Compound I-44, 3-(6-fluoro-5-(4-(1-hydroxycyclobutyl)phenyl)-1H-pyrrolo[3,2-b]pyridin-3-yl)-1,2,4-oxadiazol-5(4H)-one] | –
10 to 500 nM | – | C[C@H]1NS(=O)(c2c[nH]c3cc(Cl)c(-c4ccc(C5(O)CCC5)cc4)cc23)=NC1=O (stereo partly drawn) [Compound I-4, (4R)-1-(6-chloro-5-(4-(1-hydroxycyclobutyl)phenyl)-1H-indol-3-yl)-4-methyl-4,5-dihydro-3H-1l6,2,5-thiadiazol-3-one 1-oxide] | –
10 to 500 nM | 500 to 5000 nM | O=P(O)(O)CSc1c[nH]c2cc(F)c(-c3ccc(C4(O)CCC4)cc3)cc12 [Compound I-47, (((6-fluoro-5-(4-(1-hydroxycyclobutyl)phenyl)-1H-indol-3-yl)thio)methyl)phosphonic acid] | –
500 to 5000 nM | 500 to 5000 nM | OB1OCc2ccc(-c3c[nH]c4cc(Cl)c(-c5ccc(C6(O)CCC6)cc5)cc34)cc21 [Compound I-75, 6-(6-chloro-5-(4-(1-hydroxycyclobutyl)phenyl)-1H-indol-3-yl)benzo[c][1,2]oxaborol-1(3H)-ol] | –
5000 to 7500 nM | – | O=c1[nH]c(-c2c[nH]c3cc(F)c(-c4ccc(C5(O)COC5)cc4)nc23)no1 [Compound I-45, 3-(6-fluoro-5-(4-(3-hydroxyoxetan-3-yl)phenyl)-1H-pyrrolo[3,2-b]pyridin-3-yl)-1,2,4-oxadiazol-5(4H)-one] | –
10 to 500 nM | – | COc1ccc(-c2cc3c(-c4noc(=O)[nH]4)c[nH]c3cc2F)c(OC)n1 [Compound I-14, 3-(5-(2,6-dimethoxypyridin-3-yl)-6-fluoro-1H-indol-3-yl)-1,2,4-oxadiazol-5(4H)-one] | AC50 (AMPK (A2/B1/G1)): 10 to 500 nM

— patent US20250388571A1, “AMP-ACTIVATED PROTEIN KINASE MODULATOR COMPOUNDS AND USES THEREOF” (Biolexis Therapeutics, Inc., priority 2024, published 2025)
